Patent US20130195926A1, “MODULATION OF NITRIC OXIDE SIGNALING TO NORMALIZE TUMOR VASCULATURE” (The General Hospital Corporation, priority 2007, published 2013)
Entries after “also recorded” stand apart in the source; their conditions may differ.

Tests used:
10T1/2 cells = assay: cGMP production in cultured 10T1/2 cells; type: cell-based; settings: 100 μM
Experimental: FIGS. 13A-C show the role of the NO-sGC-cGMP pathway in perivascular cell recruitment and migration. (A) In bar graph form, cGMP production in cultured 10T1/2 cells in response to NO donor or PDE5 inhibitor. (B) In bar graph form, the migration of 10T1/2 cells in a transwell assay. 10T1/2 cell migration was assessed using Falcon HTS FluoroBlok inserts with 1 μm pores. GFP-expressing 10T1/2 cells were inoculated in the inserts, and HUVECs were inoculated in the outer well. Percent area of transwell filter covered by migrated 10T1/2 cells was determined. Medium only indicates no HUVECs in the outer well. ODQ, T-1032, Sildenafil, or Sildenafil+L-NMMA were added to the medium. *P<0.05 vs. control (HUVEC). (C) Images for transmigrated GFP-10T1/2 cells at the back side of the Fluoroblock insert after 10 hours with control vs. T-1032 treatment.
cGMP levels were examined in 10T1/2 cells following treatments of an NO donor DETANONOate or an inhibitor for phosphodiesterase 5 (PDE5), an enzyme which degrades cGMP.

U87MG tumors [1] = assay: Vessel morphology of U87 tumors in the cranial window by intravital microscopy; type: in vivo, mice; settings: L-NPA 20 mg/kg daily i.p. vs saline, cranial window
Experimental: Recombination activating gene 1 (Rag-1^−/−) mice backcrossed to C57BL/6 background or severe combined immunodeficiency (SCID) mice, bred and maintained in an gnotobiotic animal facility, were used. To obtain source tumor tissue, U87 tumor cells in culture (1×10^6 cells) were injected subcutaneously into Rag-1^−/− or SCID mice matching the recipient mice. When the tumor reached about 8 mm in diameter, it was excised after euthanasia and a small piece (about 1 mm^3) of viable tumor tissue was implanted into a cranial window or subcutaneously into the calf area of the right hindlegs of the mice as previously described (Kashiwagi, S., et al. 2005 J. Clin. Invest. 115, 1816-1827; Kozin, S. V., et al. 2001 Cancer Research 61, 39-44). All animal procedures were carried oat following the Public Health Service Policy on Humane Care of Laboratory Animals and approved by the Institutional Animal Care and Use Committee of Massachusetts General Hospital. […]
(§1) Angiogenesis and vessel morphology were determined in U87 and GL261 tumors grown in the cranial windows by intravital microscopy using multiphoton laserscanning microscopy (MPLSM) or single photon fluorescence microscopy (SPFM) when tumors reached about 7 mm^2. […] Using MPLSM, five locations with 200-μm thick imaging stack were recorded for each tumor. […]
Vascular parameters such as functional vessel density (the total length of perfused microvessels per unit area) and vessel diameter were analyzed by tracing each vessel segment using NIH image 1.63 as described elsewhere (Kashiwagi, S., et al. 2005 J. Clin. Invest. 115, 1816-1827). Tissue distribution of NO was visualized using MPLSM and the NO-sensitive fluorescence probe 4,5-diaminofluorescein (DAF-2) (0.5 mg i.v. Daiichi Pure Chemicals Co. Ltd) as described previously (Kashiwagi, S., et al. 2005 J. Clin. Invest. 115, 1816-1827). NO converts DAF-2 to 4,5-diaminofluorescein triazolium (DAF-2T) increasing fluorescence by a factor of 200. The DAF-2 associated fluorescence images were captured 60 min after i.v. injection. […]

U87MG tumors [2] = assay: Microvascular permeability of U87 tumors by intravital microscopy with tetramethylrhodamine-BSA; type: in vivo, mice; settings: L-NPA 20 mg/kg daily i.p. vs saline, cranial window
Experimental: To lower NO production from all NOS isoforms in the gliomas, mice received a pan-NOS inhibitor NG-Monomethyl-L-arginine monoacetate (L-NMMA) (Alexis Corp.) or non-active control compound D-NMMA (Alexis Corp.) at the rate of 7 mg/day by a constant release micro-osmotic pump (Model 1002, Alzet Osmotic Pumps, Durect Corp.) (Kashiwagi, S., et al. 2005 J. Clin. Invest. 115, 1816-1827). The micro-osmotic pumps were implanted in the back of the animals one day before the implantation of tumors. […]
The effective vascular permeability (P) was determined by SPFM as described previously (Fukumura, D., et al. 2001 Proc Natl Acad Sci USA 98, 2604-2609). In brief, the fluorescence intensity of the tumor tissue was intermittently measured for 20 min after the injection of tetramethylrhodamine-labeled bovine serum albumin (10 mg/ml, 0.1 ml per 25 g body weight). Permeability was calculated as P=(1−HT) V/S [1/(I0−Ib)*dI/dt+1/K], where I is the average fluorescence intensity of the whole image, I0 is the initial fluorescence intensity, and Ib is the background fluorescence intensity, HT is hematocrit, V and S are the total volume and surface area of vessels within the tissue volume covered by the surface image, respectively, and K is the time constant of BSA plasma clearance (Fukumura, D., et al. 2001 Proc Natl Acad Sci USA 98, 2604-2609).

GL261 tumors = assay: Vessel morphology and function of GL261 tumors in the cranial window; type: in vivo; settings: L-NPA vs saline, SCID mice
Experimental: FIGS. 7A-E show NOS expression in GL261 tumors and the effect of an nNOS selective inhibitor on vessel morphology and function in GL261 tumors. (A) NOS expression in GL261 tumors grown in the cranial window in SCID mice. Five micron paraffin block sections were immunostained using antibodies to eNOS, nNOS, iNOS or non-specific mouse IgG. The bar indicates 100 μm. Different from U87MG tumors, GL261 tumor cells express all three isoforms of NOS, especially strong expression of eNOS. (B) MPLSM microangiographies of GL261 tumors treated with saline and L-NPA. The bar indicates 200 μm. (C-D) Quantification of 3-D vessel density (C) and diameter (D) using MPLSM image stack and an automated image analysis system. N=6 each. (E) Microvascular permeability in GL261 tumors treated with saline (N=6) and L-NPA (N=6) was measured by intravital microscopy using tetramethylrhodamine-BSA. […]
as §1
The effective vascular permeability (P) was determined by SPFM as described previously (Fukumura, D., et al. 2001 Proc Natl Acad Sci USA 98, 2604-2609). […]

MCaIV tumors = assay: Intravital microscopy of MCaIV tumors under iNOS inhibition; type: in vivo, mice; settings: 1400 W 10 mg/kg/day by osmotic pump vs saline, 7 days
From the text: FIGS. 12A-E show the effect of iNOS inhibition in MCaIV tumors and blood vessel morphology and function in MCaIV tumors. (A) Fluorescence immunohistochemistry image of iNOS expression (green), F4/80 positive macrophages (red) and DAPI stained nuclei (blue) in MCaIV tumors grown in the mammary fat pad. The bar indicates 50 μm. (B-C) MPLSM images of MCaIV tumors grown in αSMA^P-GFP mice treated with saline control (B) or an iNOS inhibitor 1400 W (C). Functional blood vessels were contrast-enhanced by i.v. injection of tetramethylrhodamine-dextran (red). αSMA-positive perivascular cells were visualized by GFP fluorescence (green). The bars indicate 100 μm. (D-E) MCaIV tumors grown in αSMAP-GFP mice were treated with saline (control) or iNOS inhibitor (1400 W) for 7 days. (D) Perivascular cell coverage. (N=4, each). (E) Vascular permeability (N=7, each). Data are mean±SEM. *p<0.05 vs. control.
Breast cancer cells in MCaIV murine mammary tumor model express iNOS similar to many human tumors, in contrast to the U87MG glioma model, in which tumor cells predominantly express neuronal NOS (nNOS). MCaIV tumors grown orthotopically in the mammary fat pad express iNOS and to a much lesser extent eNOS as determined by real time RT-PCR. […] Inhibition of iNOS would eliminate the majority of non-vascular NO production. […]

For `NCCN(CCN)/[N+]([O-])=N/O` [DETANONOate], which cGMP level (10T1/2 cells) is on record?
The cGMP level was “increased”.

Which results are given for `CCCN=C(N)NCCC[C@H](N)C(=O)O` [L-NPA, NG propyl-L-arginine]?
vessel density (U87MG tumors [1]): increased; vascular permeability (U87MG tumors [2]): decreased; tumor vasculature (vessel morphology and function) (GL261 tumors): did not improve; also recorded: did not alter

With `CC(=N)NCc1cccc(CN)c1` [1400 W, N-(3-(Aminomethyl)benzyl) acetamidine] as the molecule, how does the vascular permeability (MCaIV tumors) read?
The vascular permeability was “significantly lower”.

What about the perivascular cell coverage (MCaIV tumors; αSMAP-GFP mice) of the same molecule?
The perivascular cell coverage was “significantly increased”.
